Source: patent US6534090B2, “Oral osmotic controlled drug delivery system for a sparingly soluble drug” (Sun Pharmaceutical Advanced Research Centre Limited, priority 2001, dated 2003)

Legend:
[1] = Comparative experiments: anhydrous carbamazepine suspended in water or aqueous solution of a crystal habit modifier; format: physicochemical
[2] = below 4 μg/ml ineffective, above 12 μg/ml side-effects likely; cited from earlier work
[3] = cited from earlier work

Structure (SMILES): NC(=O)N1c2ccccc2C=Cc2ccccc21 [carbamazepine, 5H-dibenz-[b,f]azepine-5-carboxamide]
- conversion of anhydrous carbamazepine microcrystals ([1]; in the presence of hydroxypropyl methylcellulose): did not convert to the dihydrate crystals
- length of crystals formed from anhydrous carbamazepine ([1]; in water, absence of a crystal habit modifier, long discrete needles that cluster): ≤ 500 μm
- therapeutic range (blood levels) [2]: 4 to 12 µg/mL
- solubility in water [3]: sparingly soluble in water
